Entries after “also recorded” stand apart in the source; their conditions may differ.
Columns and labels:
human CAR [1] = target: T1, human CAR (Homo sapiens, UniProt Q14994); assay: Northern blot of gene induction in CAR humanized mice; conditions: CAR humanized animals
T1 sequence (Q14994 1-348 isoform Q14994-2): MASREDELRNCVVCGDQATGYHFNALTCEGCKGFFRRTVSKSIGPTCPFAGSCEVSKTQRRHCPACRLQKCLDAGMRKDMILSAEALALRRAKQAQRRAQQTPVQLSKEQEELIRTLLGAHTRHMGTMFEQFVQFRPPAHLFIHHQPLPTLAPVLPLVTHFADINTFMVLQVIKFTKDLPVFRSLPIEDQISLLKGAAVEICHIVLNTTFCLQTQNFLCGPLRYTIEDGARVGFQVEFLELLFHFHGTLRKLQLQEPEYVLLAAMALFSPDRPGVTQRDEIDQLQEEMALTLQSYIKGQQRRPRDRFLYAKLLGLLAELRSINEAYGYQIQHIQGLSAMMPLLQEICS
Method: CAR humanized mice (n=3) were treated with 500 mg/kg APAP or vehicle. After two hours, total liver RNA was prepared and subjected to Northern blot analysis with indicated probes.

human CAR [2] = target: T1, human CAR; assay: Sensitivity of CAR humanized mice to APAP, serum ALT; set-up: expressed in transfected cells; host or cells: liver of transgenic C57BL/6 mice (line 6210, albumin promoter), crossed onto the murine CAR -/- background; conditions: CAR humanized mice pretreated three days, APAP 250 mg/kg
Method: FIG. 13 illustrates the sensitivity of CAR humanized mice to APAP. CAR humanized mice (n=3) were pretreated with phenobarbital (PB) or vehicle alone for three days and administered a 250 mg/kg dose of APAP by intraperitoneal injection. Serum was collected and alanine aminotransferase (ALT) levels were measured after 24 hours.

[3] = tested on: wild-type and CAR −/− mice; conditions: acute treatment (Heubel et al.); cited from earlier work
murine CAR receptor = target: T2, murine CAR receptor (Mus musculus, UniProt O35627, M138L); conditions: cited from earlier work
T2 sequence (O35627 1-358 M138L): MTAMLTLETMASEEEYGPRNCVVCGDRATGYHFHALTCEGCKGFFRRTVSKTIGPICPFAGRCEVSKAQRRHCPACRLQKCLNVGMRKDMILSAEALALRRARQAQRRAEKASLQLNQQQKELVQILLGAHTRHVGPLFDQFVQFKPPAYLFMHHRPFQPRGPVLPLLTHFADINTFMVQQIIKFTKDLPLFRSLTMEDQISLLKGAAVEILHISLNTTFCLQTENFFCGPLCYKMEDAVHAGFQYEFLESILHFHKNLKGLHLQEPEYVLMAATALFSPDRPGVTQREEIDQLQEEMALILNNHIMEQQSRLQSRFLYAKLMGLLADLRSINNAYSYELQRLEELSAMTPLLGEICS

Row | SMILES | expression of CYP1A2 and CYP3A11 mRNAs (human CAR [1]) | sensitivity to APAP (human CAR [2]) | increase in liver mass relative to total body mass [3] | activity on murine CAR receptor (murine CAR receptor)
1 | CCC1(c2ccccc2)C(=O)NC(=O)NC1=O [PB, phenobarbital] | induced expression | increased sensitivity to APAP | – | –
2 | Clc1cnc(Oc2ccc(Oc3ncc(Cl)cc3Cl)cc2)c(Cl)c1 [TCPOBOP, 1,4-bis[2-(3,5-dichloropyridyloxy)]benzene] | – | – | up to 2 fold | agonist ligand; also recorded: activate murine CAR

From patent publication US7186879B2, “Screening systems and methods for identifying modulators of xenobiotic metabolism” (Baylor College of Medicine, priority 2001, dated 2007)
